The source of these data is ChEMBL document CHEMBL3272295, “Drugs derived from cannabinoids. 5. delta6a,10a-Tetrahydrocannabinol and heterocyclic analogs containing aromatic side chains” (J Med Chem, 1976).

Each structure is given as a SMILES string. Calls of active or inactive are those of the source. A value given as a limit tells only on which side of the number the result lay.

For series [1], the system named is Mus musculus. Nature of the series: Antianxiety activity in albino BALB/cJ mouse assessed as reduction in footshock-induced fighting behavior at 5 mg/kg, po after 30 to 90 mins. Format: functional. Also noted: scale not given: the % may be the effect or the level left.
For series [2], the system named is Rattus norvegicus. Nature of the series: Antipsychotic activity in rat assessed as reduction of methamphetamine-induced hyperactivity at 10 mg/kg, po administered prior to methamphetamine challenge relative to vehicle-treated control. In kind it is functional. Also noted: scale not given: the % may be the effect or the level left.
Series [3] deals with Rattus norvegicus. Kind of series: Antipsychotic activity in rat assessed as reduction of methamphetamine-induced hyperactivity at 20 mg/kg, po administered prior to methamphetamine challenge relative to vehicle-treated control. In kind it is functional. Also noted: scale not given: the % may be the effect or the level left.
The subject of series [4] is Rattus norvegicus. Nature of the series: Antianxiety activity in Long-Evans rat assessed as reduction in motor activity at 10 mg/kg, po after 2 hrs relative to vehicle-treated control. In kind it is functional. Also noted: scale not given: the % may be the effect or the level left.
Series [5] concerns Rattus norvegicus. Kind of series: Antipsychotic activity in rat assessed as reduction of methamphetamine-induced hyperactivity at 5 mg/kg, po administered prior to methamphetamine challenge relative to vehicle-treated control. Format: functional. Also noted: scale not given: the % may be the effect or the level left.
Series [6] relates to Rattus norvegicus. Kind of series: Analgesic activity in Sprague-Dawley rat assessed as increase in pain threshold at 20 mg/kg, po after 15 to 90 mins by tail flick test. In kind it is functional.
The test system of series [7] is Mus musculus. Nature of the series: Analgesic activity in po dosed mouse assessed as inhibition of acetic acid-induced writhing administered 30 mins prior to acetic acid challenge measured after 5 mins for 20 mins. Format: functional. (In general: Writhing tests count abdominal constrictions after an irritant is injected.)
In series [8] the test system is Rattus norvegicus. Kind of series: Antihypertensive activity in spontaneously hypertensive rat model assessed as reduction in blood pressure at 3 mg/kg, po after 3 hrs. In kind it is functional. Also noted: scale not given: the % may be the effect or the level left.
For series [9], the system named is Rattus norvegicus. Kind of series: Antihypertensive activity in spontaneously hypertensive rat model assessed as reduction in blood pressure at 1 mg/kg, po after 24 hrs. Format: functional. Also noted: scale not given: the % may be the effect or the level left.
The nature of series [10]: Acute toxicity in po dosed mouse. In kind it is organism-based. The following applies: in vivo.
The test system of series [11] is Mus musculus. Kind of series: Analgesic activity in mouse assessed as inhibition of acetic acid-induced writhing at 10 mg/kg, po administered 30 mins prior to acetic acid challenge measured after 5 mins for 20 mins. Format: functional.
Series [12] relates to Rattus norvegicus. Nature of the series: Analgesic activity in Sprague-Dawley rat assessed as increase in pain threshold at 40 mg/kg, po after 15 to 90 mins by tail flick test. Format: functional.
For series [13], the system named is Rattus norvegicus. Kind of series: Antihypertensive activity in spontaneously hypertensive rat model assessed as reduction in blood pressure at 1 mg/kg, po after 3 hrs. In kind it is functional. Also noted: scale not given: the % may be the effect or the level left.
Series [14] deals with Rattus norvegicus. Nature of the series: Antihypertensive activity in spontaneously hypertensive rat model assessed as reduction in blood pressure at 3 mg/kg, po after 24 hrs. Format: functional. Also noted: scale not given: the % may be the effect or the level left.
Series [15] relates to Mus musculus. Nature of the series: Antidepressant activity in po dosed mouse assessed as potentiation of DOPA-induced effect administered 4 hrs prior to DOPA challenge. The conditions noted are these: read-out: MED. In kind it is functional.
The next series concerns Rhesus monkey. Kind of series: Antianxiety activity in po dosed rhesus monkey assessed as antiagressive behavior measured every hour post dosing. In kind it is functional. The conditions noted are these: Macaca mulatta, read-out: MED.
The test system of series [16] is Rattus norvegicus. Kind of series: Antipsychotic activity in rat assessed as reduction of methamphetamine-induced hyperactivity at 2.5 mg/kg, po administered prior to methamphetamine challenge relative to vehicle-treated control. Format: functional. Also noted: scale not given: the % may be the effect or the level left.
For series [17], the system named is Rattus norvegicus. Nature of the series: Antianxiety activity in Long-Evans rat assessed as reduction in motor activity at 1.25 mg/kg, po after 2 hrs relative to vehicle-treated control. In kind it is functional. Also noted: scale not given: the % may be the effect or the level left.
In series [18] the test system is Mus musculus. Nature of the series: Anticonvulsant activity in po dosed mouse assessed as dose required to protect 80% of animal measured after 1 to 4 hrs by audiogenic seizure test. In kind it is functional.
For series [19], the system named is Mus musculus. Kind of series: Antianxiety activity in albino BALB/cJ mouse assessed as reduction in footshock-induced fighting behavior at 10 mg/kg, po after 30 to 90 mins. In kind it is functional. Also noted: scale not given: the % may be the effect or the level left.
The test system of series [20] is Rattus norvegicus. Kind of series: Analgesic activity in Sprague-Dawley rat assessed as increase in pain threshold at 60 mg/kg, po after 15 to 90 mins by tail flick test. In kind it is functional. In general terms: Hot-plate and tail-flick tests time the reaction to a heat stimulus.
In series [21] the test system is Rattus norvegicus. Kind of series: Antianxiety activity in Long-Evans rat assessed as reduction in motor activity at 40 mg/kg, po after 2 hrs relative to vehicle-treated control. Format: functional. Also noted: scale not given: the % may be the effect or the level left.
Series [22] concerns Rattus norvegicus. Kind of series: Antianxiety activity in Long-Evans rat assessed as reduction in motor activity at 5 mg/kg, po after 2 hrs relative to vehicle-treated control. In kind it is functional. Also noted: scale not given: the % may be the effect or the level left.

Usually ED50 stands for the dose that gives a 50% effect, or the effect in half of the subjects. With `CN(C)CCCN1c2ccccc2Sc2ccc(Cl)cc21` [CHLORPROMAZINE], the Activity with Mus musculus [1] turned out to be 79%; with Rattus norvegicus [2], 83%; in the series with Rattus norvegicus [3], 93%; in the series with Rattus norvegicus [4], 76%; in the series on Rattus norvegicus [5] it was 11%; in the series with Rattus norvegicus [6], 37%. Also, the median effective dose (ED50) in the series with Mus musculus [7] was found to be 2.4 mg/kg.

One may read the LD50 as the dose expected to kill half of the subjects tested. As a reminder, the inhibition in vivo is the drop in the measured response relative to a control, in per cent. In the case of `CC1CCC2=C(C1)c1c(O)cc(C(C)CCc3ccc(F)cc3)cc1OC2(C)C` (stereo unspecified), the Activity was 28% with Rattus norvegicus [8]; 5% in the series on Rattus norvegicus [9]; 70% in the series with Rattus norvegicus [12]; 72% with Rattus norvegicus [4]; 8% with Rattus norvegicus [13]; 23% in the series on Rattus norvegicus [5]. Besides, the Activity in the series on Rattus norvegicus [14] is 8%. In addition, the LD50 in [10] is at least 1000 mg/kg. Besides, in the series on Mus musculus [11], the inhibition in vivo at 10 mg/kg came to 27%.

As for `CCCCCC(C)C(C)c1cc(O)c2c(c1)OC(C)(C)C1CC=C(C)CC21` (stereo unspecified), the minimal effective dose in the series with Mus musculus [15] was found to be 20 mg/kg; in the series on Rhesus monkey it was 1 mg/kg. This compound displayed a median lethal dose (LD50) in series [10] of at least 1000 mg/kg. Moreover, the Activity was 52% in the series on Rattus norvegicus [16], 60% with Rattus norvegicus [17], 89% with Mus musculus [19] and 81% in the series with Rattus norvegicus [5]. Also, in the series on Mus musculus [18], the result was inactive. Also, in the series on Mus musculus [7], the ED50 was found to be 7.9 mg/kg.

As to `CN1C(=O)CN=C(c2ccccc2)c2cc(Cl)ccc21` [DIAZEPAM], the Activity with Mus musculus [1] was 95%; in the series on Rattus norvegicus [20] it was 64%; in the series with Rattus norvegicus [21], 60%; in the series on Rattus norvegicus [22], 15%. In the series with Rhesus monkey, the minimal effective dose worked out at 1 mg/kg. In addition, the ED50 in the series with Mus musculus [7] is 4 mg/kg.
